According to patent US9233946B2, “Sulfonamide compounds” (KANCERA AB, priority 2010, dated 2016):
pIC50: −log10 of the molar value.

Biological target: PFKFB4 (Homo sapiens (Human), UniProt Q16877)
Assay: PFKFB4 kinase activity, Method B (ADP-Glo Kinase Assay)
Type: biochemical
Conditions: not given
Excerpt: (§1) The PFKFB3 (placenta form) and PFKFB4 were produced and purified to homogeneity from E. coli at Biovitrum and at Sprint Bioscience. All other reagents were purchased from commercial sources. Two independent methods have been used for determination of the kinase activity of PFKFB3 (Method A and Method B). Method B has been used for determination of the kinase activity of PFKFB4.
(§2) Method B: The kinase activity of the bi-functional enzyme is readily quantified based on the production of ADP and F-2,6-P2 from ATP and F6P. The ADP is detected with a kit, ADP-Glo™ Kinase Assay^(a-e), from Promega. The assay is a luminescent ADP detection assay that measures kinase activity by quantifying the amount of ADP produced during the kinase reaction. The assay is performed in two steps; first, after the kinase reaction, an equal volume of ADP-Glo™ Reagent is added to terminate the kinase reaction and deplete the remaining ATP. Second, the Kinase Detection Reagent is added to simultaneously convert ADP to ATP and allow the newly synthesized ATP to be measured using a luciferase/luciferine reaction. The light generated is measured using a luminescence counter (1450 MicroBeta TriLux).
(§3) The assay was performed in white 384-well microtiter plates (OptiPlate, 6007299, PerkinElmer) by consecutive additions of 0.1 μL of a test compound solution (serial diluted in DMSO from compound DMSO stock solution and dispensed by acoustic dispensing from UV-star 384-well plate 7360153, VWR), 5 μL of enzyme solution and 5 μL of a substrate (fructose-6-phosphate (F6P) and adenosine-5′-triphosphate (ATP)) containing solution. […] Four reference dose response curves, one of them being the QC compound, were included in row O1-2, P1-2, and serial diluted as the test compounds. The final concentrations of all reagents in a total assay volume of 10.1 μL per well were: • 50 mM Tris-HCl at pH 8.0 • 10 mM MgCl2 • 5 mM Na2HPO4 at pH 8.0 • 81.48 nM PFKFB3 or 145 nM PFKFB4 • 8 μM ATP • 100 μM F6P (acid treated and then neutralized to remove any contaminating F-2,6-P2; see Van Schaftingen, 1984) • 0.005% Tween-20 • 1 mM dithiothreitol (DTT) • A test compound at various concentrations or controls (final DMSO concentration 0.99%)
(§4) Enzyme, compounds and controls were pre-incubated at room temperature for 15 min before the addition of substrate solution. The enzymatic reaction was allowed to proceed for 20 min (PFKFB3) or 40 min (PFKFB4) at room temperature. The reaction was terminated by the addition of 10 μL of ADP-Glo™ Reagent to all wells and the plate was incubated for 40 min at room temperature. After addition of 20 μL Kinase Detection Reagent to all wells the plate was incubated for 30 min at room temperature, followed by measurement in 1450 MicroBeta TriLux. All plates were centrifuged after each addition (room temperature, short spin, 500 RPM, Megafuge 1.0 Heraeus Instruments).
(§5) The inhibitory potency or IC50 values of test compounds on the kinase activity of PFKFB3 or PFKFB4 were calculated using a four-parameter model (model 205) in XLfit (IDBS ActivityBase XE Runner).

Chain of PFKFB4 (Q16877 whole entry): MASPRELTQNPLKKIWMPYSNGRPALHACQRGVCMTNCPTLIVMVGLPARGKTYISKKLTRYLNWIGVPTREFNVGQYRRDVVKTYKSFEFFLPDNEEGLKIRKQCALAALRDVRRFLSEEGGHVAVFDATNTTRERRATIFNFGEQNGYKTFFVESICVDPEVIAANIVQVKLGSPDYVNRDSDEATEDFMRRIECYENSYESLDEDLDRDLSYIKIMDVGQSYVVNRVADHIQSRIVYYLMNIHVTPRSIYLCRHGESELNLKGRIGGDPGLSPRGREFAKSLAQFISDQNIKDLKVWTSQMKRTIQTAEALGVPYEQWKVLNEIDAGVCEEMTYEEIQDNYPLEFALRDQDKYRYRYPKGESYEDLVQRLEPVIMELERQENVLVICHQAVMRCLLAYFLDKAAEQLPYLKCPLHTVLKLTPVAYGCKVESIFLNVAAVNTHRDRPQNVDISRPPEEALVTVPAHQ

SMILES | pIC50
COc1cccc2c(C)c(S(=O)(=O)Nc3cccc(C(=O)O)c3)sc12 [Example 42, 3-{[(7-Methoxy-3-methyl-1-benzothien-2-yl)sulfonyl]amino}benzoic acid] | 6.38
O=S(=O)(Nc1cccc(-c2nnn[nH]2)c1)c1ccc(-c2ccc(F)c(Cl)c2)s1 [Example 102, 5-(3-Chloro-4-fluorophenyl)-N-[3-(1H-tetrazol-5-yl)phenyl]thiophene-2-sulfonamide] | 6.18
O=S(=O)(Nc1cccc(-c2nnn[nH]2)c1)c1ccc(-c2ccc(F)cc2F)s1 [Example 101, 5-(2,4-Difluorophenyl)-N-[3-(1H-tetrazol-5-yl)phenyl]thiophene-2-sulfonamide] | 6.22
O=S(=O)(Nc1cccc(-c2nnn[nH]2)c1)c1ccc(Br)cc1F [Example 57, 4-Bromo-2-fluoro-N-[3-(1H-tetrazol-5-yl)phenyl]benzenesulfonamide] | 5.74
Cc1ccc(-c2ccc(S(=O)(=O)Nc3cccc(-c4nnn[nH]4)c3)s2)cc1 [Example 27, 5-(4-Methylphenyl)-N-[3-(1H-tetrazol-5-yl)phenyl]thiophene-2-sulfonamide] | 6.32
O=S(=O)(Nc1cccc(-c2nnn[nH]2)c1)c1cccc(-c2ccccc2)c1 [Example 16, N-[3-(1H-Tetrazol-5-yl)phenyl]biphenyl-3-sulfonamide] | 6.41
O=S(=O)(Nc1cccc(-c2nnn[nH]2)c1)c1ccc(-c2ccccc2Cl)s1 [Example 26, 5-(2-Chlorophenyl)-N-[3-(1H-tetrazol-5-yl)phenyl]thiophene-2-sulfonamide] | 6.12
COc1ccc(-c2ccc(S(=O)(=O)Nc3cccc(-c4nnn[nH]4)c3)cc2)cc1 [Example 85, 4′-Methoxy-N-[3-(1H-tetrazol-5-yl)phenyl]biphenyl-4-sulfonamide] | 5.43
CSc1nccc(-c2ccc(S(=O)(=O)Nc3cccc(-c4nnn[nH]4)c3)s2)n1 [Example 21, 5-[2-(Methylthio)pyrimidin-4-yl]-N-[3-(1H-tetrazol-5-yl)phenyl]thiophene-2-sulfonamide] | 6.38
Cc1c(S(=O)(=O)Nc2cccc(-c3nnn[nH]3)c2)sc2ccc(F)cc12 [Example 43, 5-Fluoro-3-methyl-N-[3-(1H-tetrazol-5-yl)phenyl]-1-benzothiophene-2-sulfonamide] | 6.77
COc1ccccc1-c1ccc(S(=O)(=O)Nc2cccc(-c3nnn[nH]3)c2)s1 [Example 24, 5-(2-Methoxyphenyl)-N-[3-(1H-tetrazol-5-yl)phenyl]thiophene-2-sulfonamide] | 6.18
O=S(=O)(Nc1cccc(-c2nnn[nH]2)c1)c1c(Cl)cc(C(F)(F)F)cc1Cl [Example 18, 2,6-Dichloro-N-[3-(1H-tetrazol-5-yl)phenyl]-4-(trifluoromethyl)benzenesulfonamide] | 6.29
Cc1c(S(=O)(=O)Nc2ncc(C(=O)O)s2)sc2ccc(C(C)C)cc12 [Example 7, 2-{[(5-Isopropyl-3-methyl-1-benzothien-2-yl)sulfonyl]amino}-1,3-thiazole-5-carboxylic acid] | 7.00
Cc1ccc2sc(S(=O)(=O)Nc3cccc(-c4nnn[nH]4)c3)cc2c1 [Example 40, 5-Methyl-N-[3-(1H-tetrazol-5-yl)phenyl]-1-benzothiophene-2-sulfonamide] | 6.85
Cc1c(S(=O)(=O)Nc2cccc(C(=O)O)c2O)sc2ccc(Cl)cc12 [Example 134, 3-{[(5-Chloro-3-methyl-1-benzothiophen-2-yl)sulfonyl]amino}-2-hydroxybenzoic acid] | 6.74
Cc1c(S(=O)(=O)Nc2cccc(C(=O)O)c2)sc2c(Cl)cccc12 [Example 44, 3-{[(7-Chloro-3-methyl-1-benzothien-2-yl)sulfonyl]amino}benzoic acid] | 6.70

Test system: PANC-1 cells
Assay: Quantification of F-2,6-P2 in PANC-1 cells
Type: cell-based
Conditions: Homo sapiens, PANC-1; read-out: IC50 based on quantification of F-2,6-P2
Excerpt: The relative kinase (formation) and phosphatase (degradation) activities of the bi-functional enzymes PFKFB3 and PFKFB4 control the intracellular levels of the regulator F-2,6-P2, which acts as an allosteric activator of glycolysis. The levels of F-2,6-P2 have been determined in three different cancer cell lines (MCF-7, PANC-1 and NUGC-3) using the van Shaftingen assay. The assay protocols described under “Methods for measurement of enzymatic activity of PFKFB3 and PFKFB4, Method A” have been adapted for the measurement of the inhibitory effect of compounds on the kinase activity of the various isoforms of the bifunctional enzyme (endogenously expressed) in the different cell lines. The modifications are described in the protocol below. All reagents were purchased from commercial sources or prepared inhouse.
Cell Line B (PANC-1, Human Pancreatic Carcinoma Cell Line)
• Cells: PANC-1 (ATCC-CRL-1469). Lot. no: 58564651. • Growth medium: Dulbecco's Modified Eagle's Medium, DMEM, ATCC-30-2002 10% FBS, Invitrogen, 10106-169
Cells were seeded at a concentration of 250 000 cells/mL in 100 μL growth medium (25 000 cells/well)
Starvation medium: DMEM/F12 without phenol red and glucose free, SVA, 991373 0.25% FBS, Invitrogen, 10106-169
Induction medium: DMEM/F12 without phenol red and glucose free, SVA, 991373 0.25% FBS, Invitrogen, 10106-169 (same as starvation medium)
Cells were seeded in 96-well Corning Costar tissue culture plates (CLS3595, Sigma-Aldrich) using the concentrations specified above for the three different cell lines A-C and incubated over night at 37° C. and 5% CO2. Row A was left empty. Next day the growth medium was discarded and replaced with 100 μL starvation medium. The plates were incubated for 18 h at 37° C. and 5% CO2. After 18 h of starvation the cells were induced with 100 μL compound or control solutions. Compounds were either tested in two concentrations (50 μM and 10 μM) or in dose response curves starting from 50 μM and the final DMSO concentration in assay plates was 0.5%. Also a dose response curve of a reference inhibitor was included in row H on each plate. All compounds were tested in duplicate plates. Compounds (in 96 well CLS 3365, Sigma-Aldrich) were serial diluted in DMSO from 10 mM compound DMSO stock solutions with Janus (automated liquid handling workstation from PerkinElmer). 5 μL were transferred to a Greiner deep well plate (736-0155, VWR) with 495 μL starvation medium. The final start concentration of compounds in the dilution plate was 100 μM, 1% DMSO. For compounds tested as single points, 10 mM compound solutions were diluted five fold in DMSO to 2 mM, followed by the transfer of 5 μL to separate dilution plates with 495 μL starvation medium. The final concentration of compounds in these dilution plates were 100 or 20 μM, respectively, and final concentration of DMSO was 1%. The plates were incubated at 37° C. and 5% CO2 for 1 h, followed by the addition of 10 μL 20 mM D-glucose in starvation medium. Controls, with and without 1 mM glucose, were included in row B. The final assay volume was 210 μL per well. After 2 h of incubation at 37° C. and 5% CO2, supernatants were discarded and the cells were lysed by the addition of 25 μL 250 mM NaOH. The plates were incubated at 37° C. and 5% CO2 for 5 min followed by an addition of 75 μL MilliQ dH2O. The supernatants were further diluted with 210 μL MilliQ dH2O to a final concentration of 20 mM NaOH. 200 μL were transferred to NUNC 96-well plates (7322661, VWR) and the plates were sealed and stored at −20° C. until analysis.
The amount of F-2,6-P2 was quantified based on the coupled enzymatic reaction described by Van Schaftingen. If necessary the samples were further diluted in 20 mM NaOH before quantification. Plates stored at −20° C. were thawed and the F-2,6-P2 quantification was initiated by transferring 40 μL from each well of the NUNC plate to the corresponding position in a trans-parent 96-well SpectraPlate-MB (6005649, PerkinElmer). […]

SMILES | pIC50
Cc1ccc(-c2ccc(S(=O)(=O)Nc3cccc(-c4nnn[nH]4)c3)s2)cc1 [Example 27, 5-(4-Methylphenyl)-N-[3-(1H-tetrazol-5-yl)phenyl]thiophene-2-sulfonamide] | 4.86
COc1ccccc1-c1ccc(S(=O)(=O)Nc2cccc(-c3nnn[nH]3)c2)s1 [Example 24, 5-(2-Methoxyphenyl)-N-[3-(1H-tetrazol-5-yl)phenyl]thiophene-2-sulfonamide] | 4.96

Biological target: PFKFB3 (Homo sapiens (Human), UniProt Q16875)
Sequence (Q16875 whole entry): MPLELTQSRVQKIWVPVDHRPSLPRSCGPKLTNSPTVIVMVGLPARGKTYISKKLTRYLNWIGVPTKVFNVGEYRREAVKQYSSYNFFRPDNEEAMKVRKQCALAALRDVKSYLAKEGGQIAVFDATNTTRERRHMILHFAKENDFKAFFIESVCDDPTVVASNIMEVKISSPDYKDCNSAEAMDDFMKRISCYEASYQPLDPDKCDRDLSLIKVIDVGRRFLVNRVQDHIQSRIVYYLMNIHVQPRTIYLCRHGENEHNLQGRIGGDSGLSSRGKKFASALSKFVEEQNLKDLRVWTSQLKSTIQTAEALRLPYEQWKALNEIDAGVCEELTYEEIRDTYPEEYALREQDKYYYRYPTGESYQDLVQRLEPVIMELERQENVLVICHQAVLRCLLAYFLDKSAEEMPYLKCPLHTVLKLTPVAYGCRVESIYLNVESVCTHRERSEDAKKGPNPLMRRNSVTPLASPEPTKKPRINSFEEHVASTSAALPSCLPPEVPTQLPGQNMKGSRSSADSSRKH
Assay: PFKFB3 kinase activity, Method B (ADP-Glo Kinase Assay)
Type: biochemical
Conditions: not given
Excerpt: as §1, §2, §3, §4, §5

SMILES | pIC50
O=S(=O)(Nc1cccc(-c2nnn[nH]2)c1)c1ccc(-c2cc(F)cc(F)c2)s1 [Example 23, 5-(3,5-Difluorophenyl)-N-[3-(1H-tetrazol-5-yl)phenyl]thiophene-2-sulfonamide] | 6.21
O=S(=O)(Nc1cccc(-c2nnn[nH]2)c1)c1ccc(-c2ccccc2)s1 [Example 60, 5-Phenyl-N-[3-(1H-tetrazol-5-yl)phenyl]thiophene-2-sulfonamide] | 5.89
O=C(O)c1cccc(NS(=O)(=O)c2cccc(-c3ccccc3)c2)c1 [Example 80, 3-[(Biphenyl-3-ylsulfonyl)amino]benzoic acid] | 5.51
O=C(O)c1cccc(NS(=O)(=O)c2cc(-c3ccccc3O)c(Cl)s2)c1O [Example 137, 3-({[5-Chloro-4-(2-hydroxyphenyl)thiophen-2-yl]sulfonyl}amino)-2-hydroxybenzoic acid] | 5.29
Cc1c(S(=O)(=O)Nc2ccc(O)c(C(=O)O)c2)sc2ccc(Cl)cc12 [Example 138, 5-{[(5-Chloro-3-methyl-1-benzothiophen-2-yl)sulfonyl]amino}-2-hydroxybenzoic acid] | 5.04
